# Active and inactive are the calls of the source.
# Legend:
# [1] = biological target: T1, Trace amine-associated receptor 1 (Homo sapiens, UniProt Q96RJ0); test: Counterscreen for agonists of the human trace amine associated receptor 1 (hTAAR1): Fluorescence-based cell-based high throughput dose response assay to identify hTAAR1 agonist that also desensitize TAAR1 receptor response.; type: functional
# [2] = biological target: T1, Trace amine-associated receptor 1; test: Fluorescence-based cell-based high throughput dose response assay to identify agonists of the human trace amine associated receptor 1 (TAAR1).; type: functional
# cells [3] = type: functional, cell-based
# cells [4] = type: functional, cell-based; remark: listed apart in the source
# [5] = biological target: T2, Sentrin-specific protease 8 (Homo sapiens, UniProt Q96LD8); type: functional
# T2 sequence (Q96LD8 whole entry): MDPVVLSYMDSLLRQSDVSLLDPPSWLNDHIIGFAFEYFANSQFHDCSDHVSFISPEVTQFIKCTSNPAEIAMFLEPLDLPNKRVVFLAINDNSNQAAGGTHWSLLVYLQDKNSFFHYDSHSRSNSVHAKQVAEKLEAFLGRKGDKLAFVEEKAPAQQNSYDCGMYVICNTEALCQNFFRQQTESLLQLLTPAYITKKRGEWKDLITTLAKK
# [6] = biological target: T3, Zinc finger protein mex-5 (Caenorhabditis elegans, UniProt Q9XUB2); test: potency of MEX-5 RNA-binding blockers – biochemical, C. elegans, fluorescence polarization, dose response (AID 1960)
# T3 sequence (Q9XUB2 whole entry): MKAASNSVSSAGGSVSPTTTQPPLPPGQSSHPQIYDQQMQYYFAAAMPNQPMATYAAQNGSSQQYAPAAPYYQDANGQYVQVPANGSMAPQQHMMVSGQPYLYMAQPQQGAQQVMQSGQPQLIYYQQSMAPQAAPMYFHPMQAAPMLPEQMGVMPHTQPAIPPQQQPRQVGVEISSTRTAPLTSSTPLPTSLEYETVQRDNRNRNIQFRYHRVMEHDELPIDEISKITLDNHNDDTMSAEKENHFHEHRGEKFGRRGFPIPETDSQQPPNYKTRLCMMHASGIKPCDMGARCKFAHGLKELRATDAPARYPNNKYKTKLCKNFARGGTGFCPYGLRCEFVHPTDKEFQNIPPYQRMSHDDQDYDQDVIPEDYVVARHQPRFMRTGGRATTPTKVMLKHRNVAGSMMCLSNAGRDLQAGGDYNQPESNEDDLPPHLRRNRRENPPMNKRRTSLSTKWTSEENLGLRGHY
# [7] = biological target: T4, Replicative DNA helicase DnaB (Mycobacterium tuberculosis, UniProt P9WMR3); test: DnaB intein splicing inhibitors, dose response, biochemical, cell-free fluorescence (AID 449749); type: functional
# T4 sequence (P9WMR3 whole entry): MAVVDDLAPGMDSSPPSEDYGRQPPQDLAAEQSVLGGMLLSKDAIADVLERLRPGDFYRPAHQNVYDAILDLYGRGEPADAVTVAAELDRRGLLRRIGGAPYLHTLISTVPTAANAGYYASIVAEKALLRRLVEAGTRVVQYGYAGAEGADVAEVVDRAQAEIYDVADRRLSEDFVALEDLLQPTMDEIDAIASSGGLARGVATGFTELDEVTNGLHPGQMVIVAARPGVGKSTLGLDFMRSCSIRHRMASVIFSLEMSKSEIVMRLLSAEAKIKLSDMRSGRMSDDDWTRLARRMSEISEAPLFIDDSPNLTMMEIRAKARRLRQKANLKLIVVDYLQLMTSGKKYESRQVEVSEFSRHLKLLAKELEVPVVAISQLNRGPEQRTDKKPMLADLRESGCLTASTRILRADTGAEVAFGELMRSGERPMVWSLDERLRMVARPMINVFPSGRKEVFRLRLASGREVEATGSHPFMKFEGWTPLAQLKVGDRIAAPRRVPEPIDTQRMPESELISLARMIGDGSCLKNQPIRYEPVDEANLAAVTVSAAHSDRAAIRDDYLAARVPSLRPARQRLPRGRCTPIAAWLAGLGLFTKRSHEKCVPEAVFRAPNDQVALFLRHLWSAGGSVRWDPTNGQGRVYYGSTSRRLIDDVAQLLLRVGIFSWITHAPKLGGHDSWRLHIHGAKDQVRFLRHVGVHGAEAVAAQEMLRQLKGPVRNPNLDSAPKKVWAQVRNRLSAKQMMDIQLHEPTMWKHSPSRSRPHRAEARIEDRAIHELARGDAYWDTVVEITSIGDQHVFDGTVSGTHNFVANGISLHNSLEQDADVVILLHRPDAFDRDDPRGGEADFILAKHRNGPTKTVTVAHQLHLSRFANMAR
# [8] = biological target: T5, RNA-binding protein pos-1 (Caenorhabditis elegans, UniProt G5EF15); test: disruptors of C. elegans POS-1 RNA interaction – biochemical, fluorescence polarization, dose response (AID 1964);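 also: purified POS-1 fused to maltose binding protein made in E. coli; potency of compounds blocking POS-1 binding to fluorescent RNA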
# T5 sequence (G5EF15 whole entry): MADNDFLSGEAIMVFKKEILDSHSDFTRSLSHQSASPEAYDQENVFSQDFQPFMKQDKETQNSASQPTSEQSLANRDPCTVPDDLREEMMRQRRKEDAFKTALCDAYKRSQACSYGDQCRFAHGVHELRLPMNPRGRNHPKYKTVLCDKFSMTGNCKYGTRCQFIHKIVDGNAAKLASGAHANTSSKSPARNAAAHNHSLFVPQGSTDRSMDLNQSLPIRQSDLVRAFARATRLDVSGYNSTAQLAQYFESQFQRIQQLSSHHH
# Large T antigen = Large T antigen (Simian virus 40, UniProt P03070); type: functional, Betapolyomavirus macacae;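 also: Confirmatory-stage PubChem screen for compounds that inhibit SV40 T antigen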
# Sequence of Large T antigen (P03070 whole entry): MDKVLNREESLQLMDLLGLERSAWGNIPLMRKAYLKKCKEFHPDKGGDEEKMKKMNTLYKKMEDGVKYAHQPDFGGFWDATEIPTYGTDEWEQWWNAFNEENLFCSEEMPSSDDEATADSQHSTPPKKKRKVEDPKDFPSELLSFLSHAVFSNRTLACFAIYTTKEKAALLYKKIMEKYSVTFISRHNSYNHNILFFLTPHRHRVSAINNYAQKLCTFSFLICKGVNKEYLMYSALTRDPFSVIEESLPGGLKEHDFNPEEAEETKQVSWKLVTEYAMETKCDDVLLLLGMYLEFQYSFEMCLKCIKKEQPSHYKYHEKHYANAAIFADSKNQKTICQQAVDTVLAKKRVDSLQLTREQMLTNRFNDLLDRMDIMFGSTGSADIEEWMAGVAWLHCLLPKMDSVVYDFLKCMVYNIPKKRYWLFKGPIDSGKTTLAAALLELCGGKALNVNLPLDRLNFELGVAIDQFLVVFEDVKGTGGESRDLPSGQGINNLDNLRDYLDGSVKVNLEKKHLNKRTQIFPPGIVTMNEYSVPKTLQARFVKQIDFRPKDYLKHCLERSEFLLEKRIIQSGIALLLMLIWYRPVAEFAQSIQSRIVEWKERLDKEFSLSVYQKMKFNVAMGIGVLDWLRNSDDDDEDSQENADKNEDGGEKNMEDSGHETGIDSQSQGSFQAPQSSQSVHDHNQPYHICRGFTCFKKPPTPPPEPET
# [9] = biological target: T2, Sentrin-specific protease 8; type: functional; remark: listed apart in the source
# Protein RecA = biological target: T6, Protein RecA (Mycobacterium tuberculosis, UniProt P9WHJ3); test: Fluorescence Cell-Free Homogeneous Dose Retest to Identify Inhibitors of RecA-Intein Splicing Activity. [Related pubchem assays (depositor defined):AID2097, AID2223, AID489010, AID492950]; type: functional
# T6 sequence (P9WHJ3 whole entry): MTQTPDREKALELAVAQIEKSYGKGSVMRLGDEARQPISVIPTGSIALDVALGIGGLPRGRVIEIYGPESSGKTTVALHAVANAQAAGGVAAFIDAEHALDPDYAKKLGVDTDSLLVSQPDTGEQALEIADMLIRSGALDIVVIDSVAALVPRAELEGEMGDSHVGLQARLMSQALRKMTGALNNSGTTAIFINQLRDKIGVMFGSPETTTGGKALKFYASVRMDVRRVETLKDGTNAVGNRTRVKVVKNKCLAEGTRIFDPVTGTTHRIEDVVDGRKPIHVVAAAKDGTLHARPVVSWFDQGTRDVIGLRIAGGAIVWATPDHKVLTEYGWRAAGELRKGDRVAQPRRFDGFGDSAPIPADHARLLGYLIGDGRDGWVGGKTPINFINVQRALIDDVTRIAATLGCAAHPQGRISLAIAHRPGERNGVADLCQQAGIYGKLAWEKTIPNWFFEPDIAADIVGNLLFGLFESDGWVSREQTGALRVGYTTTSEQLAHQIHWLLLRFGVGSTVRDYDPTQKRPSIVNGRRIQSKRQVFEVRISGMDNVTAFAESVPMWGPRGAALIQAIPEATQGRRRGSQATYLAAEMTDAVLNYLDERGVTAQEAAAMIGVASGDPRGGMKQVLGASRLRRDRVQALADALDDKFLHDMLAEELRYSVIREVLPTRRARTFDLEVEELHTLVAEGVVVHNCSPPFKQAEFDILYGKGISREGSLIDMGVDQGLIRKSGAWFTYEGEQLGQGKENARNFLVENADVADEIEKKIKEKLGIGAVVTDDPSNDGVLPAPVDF
# [10] = biological target: Botulinum neurotoxin type F (Clostridium botulinum, UniProt P30996); test: High-throughput multiplex microsphere dose response for inhibitors of toxin protease, specifically Botulinum neurotoxin light chain F protease, compounds from Cherry Pick 02.; type: functional; settings: read-out: EC50_MICROM
# Sequence of Botulinum neurotoxin type F (P30996 1-436 limits assumed): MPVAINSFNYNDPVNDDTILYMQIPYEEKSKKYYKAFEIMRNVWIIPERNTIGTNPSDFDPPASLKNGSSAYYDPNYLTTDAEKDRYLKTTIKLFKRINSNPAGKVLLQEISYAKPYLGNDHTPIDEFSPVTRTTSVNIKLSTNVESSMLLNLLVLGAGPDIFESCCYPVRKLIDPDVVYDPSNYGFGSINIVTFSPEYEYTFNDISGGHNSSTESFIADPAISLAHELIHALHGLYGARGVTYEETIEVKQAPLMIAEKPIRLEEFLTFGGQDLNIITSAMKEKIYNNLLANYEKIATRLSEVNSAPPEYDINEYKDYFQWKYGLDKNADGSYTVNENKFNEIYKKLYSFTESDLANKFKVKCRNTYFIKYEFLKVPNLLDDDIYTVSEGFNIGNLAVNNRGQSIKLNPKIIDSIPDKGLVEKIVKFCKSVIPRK
# [11] = off-target signal loss in HeLa-CEM21 co-culture – HeLa F-luc CTL cells, cherry-picked, counter-screen for HIV-1 Env fusion inhibitor project, dose response (AID 652040); type: functional, cell-based;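 also: potency for signal decrease marking cytotoxic or nonspecific inhibition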
# SUMO-activating enzyme = SUMO-activating enzyme (Homo sapiens, UniProt Q9UBT2); test: blockers of UBC9-mediated SUMO conjugation – biochemical, AlphaScreen, SUMOylation inhibitor project, confirmation (AID 2018); type: functional
# [12] = viability loss in CEM21 cells – cell-based, CellTiter-Glo luminescence, cherry-picked, cytotoxicity control for viral fusion inhibitor project, dose response (AID 652042); type: functional;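 also: potency for signal decrease meaning cytotoxicity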
# [13] = blockers of HIV-1 ZM109 envelope-driven cell-cell fusion – HeLa effector, CEM target cells, luciferase, cherry-pick, dose response (AID 652058); type: functional, cell-based;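 also: luciferase signal from HIV-1 Env mediated cell-cell fusion of effector and target cells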
# [14] = HIV-1 AD8 envelope cell-cell fusion blockers – cherry-pick, dose response (AID 652062); type: functional, cell-based;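 also: luciferase signal from cell-cell fusion driven by HIV-1 clade B AD8 Env; potency is for inhibitors of fusion seen as a drop in luminescence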
# [15] = blockers of HIV-1 envelope-mediated cell-cell fusion – cherry-pick, dose response (AID 652057); type: functional, cell-based
# [16] = cell viability loss, ATP luminescence – CellTiter-Glo, 24 h, powder samples, set 7, cytotoxicity control for SR-BI HDL uptake inhibitor project, dose response (AID 624026); type: functional, cell-based
# [17] = biological target: T7, Scavenger receptor class B member 1 (Mus musculus, UniProt Q61009); test: blockers of DiI-HDL lipid transfer via SR-BI – cell-based, ldlA[mSR-BI] CHO, DiI fluorescence, dry powder, set 10, dose response (AID 624029); type: functional
# T7 sequence (Q61009 whole entry): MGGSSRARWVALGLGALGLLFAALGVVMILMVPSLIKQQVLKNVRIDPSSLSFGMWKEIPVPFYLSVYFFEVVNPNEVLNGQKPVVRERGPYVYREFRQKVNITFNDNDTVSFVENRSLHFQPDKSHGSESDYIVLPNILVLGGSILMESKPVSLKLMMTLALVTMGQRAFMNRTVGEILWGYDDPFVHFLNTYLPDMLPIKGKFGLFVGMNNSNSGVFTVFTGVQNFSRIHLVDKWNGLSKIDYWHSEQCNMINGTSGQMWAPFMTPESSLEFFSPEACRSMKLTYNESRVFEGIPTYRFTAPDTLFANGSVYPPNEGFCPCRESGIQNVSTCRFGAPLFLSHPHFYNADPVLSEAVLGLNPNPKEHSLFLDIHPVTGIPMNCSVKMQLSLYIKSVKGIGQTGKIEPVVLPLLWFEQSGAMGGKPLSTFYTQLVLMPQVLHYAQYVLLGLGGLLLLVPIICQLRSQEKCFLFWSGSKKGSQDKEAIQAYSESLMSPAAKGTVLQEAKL
# [18] = biological target: T7, Scavenger receptor class B member 1; test: mouse SR-BI DiI-HDL transfer blockers – ldlA[mSR-BI] CHO cells, fluorescence plate reader, dry powder, set 9, dose response (AID 623880); type: functional, cell-based
# [19] = biological target: Fructose-bisphosphate aldolase (Mycobacterium tuberculosis, UniProt P9WQA3); test: Fluorescence-based biochemical high throughput dose response assay for inhibitors of the fructose-bisphosphate aldolase (FBA) of M. tuberculosis.; type: functional
# Sequence of Fructose-bisphosphate aldolase (P9WQA3 whole entry): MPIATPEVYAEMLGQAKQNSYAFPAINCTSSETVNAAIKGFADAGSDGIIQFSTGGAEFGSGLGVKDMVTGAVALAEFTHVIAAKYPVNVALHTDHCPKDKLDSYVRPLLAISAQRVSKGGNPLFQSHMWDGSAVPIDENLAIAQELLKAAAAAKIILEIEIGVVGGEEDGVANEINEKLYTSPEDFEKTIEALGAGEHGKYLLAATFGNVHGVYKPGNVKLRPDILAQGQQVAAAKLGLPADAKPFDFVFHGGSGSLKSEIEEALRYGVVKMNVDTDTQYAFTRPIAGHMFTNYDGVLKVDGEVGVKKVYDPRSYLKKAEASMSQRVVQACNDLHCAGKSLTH
# A549 = test: viability loss in A549 cells – cell-based, plate reader, cherry-pick samples, cytotoxicity control, dose response (AID 687028); type: functional; settings: Homo sapiens
# [20] = biological target: Nuclear receptor subfamily 0 group B member 1 (Homo sapiens, UniProt P51843); type: functional, cell-based;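 also: HEK293T cells transfected with SF-1 and DAX-1 plus StAR promoter luciferase reporter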
# Sequence of Nuclear receptor subfamily 0 group B member 1 (P51843 whole entry): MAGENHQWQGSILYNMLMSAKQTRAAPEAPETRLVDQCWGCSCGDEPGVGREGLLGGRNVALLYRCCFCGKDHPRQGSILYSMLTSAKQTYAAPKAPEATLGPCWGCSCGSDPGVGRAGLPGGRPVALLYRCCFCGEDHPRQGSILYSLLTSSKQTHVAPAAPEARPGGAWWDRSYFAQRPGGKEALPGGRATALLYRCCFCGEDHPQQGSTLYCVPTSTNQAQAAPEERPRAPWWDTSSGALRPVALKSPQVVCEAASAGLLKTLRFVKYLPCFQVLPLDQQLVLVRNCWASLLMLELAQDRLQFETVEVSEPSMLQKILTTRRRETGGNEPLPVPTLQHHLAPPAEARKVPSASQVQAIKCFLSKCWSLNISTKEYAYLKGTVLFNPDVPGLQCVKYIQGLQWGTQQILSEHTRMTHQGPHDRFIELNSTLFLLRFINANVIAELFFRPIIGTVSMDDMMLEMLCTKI
# cells [21] = type: functional, cell-based; remark: listed apart in the source
# [22] = biological target: Arf-GAP with SH3 domain, ANK repeat and PH domain-containing protein 1 (Homo sapiens, UniProt Q9ULH1); type: functional;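 also: biochemical fluorescence polarization dose–response screen measuring inhibition of ASAP1; ASAP1 GAP domain stimulating GTP hydrolysis by truncated human ARF1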
# Sequence of Arf-GAP with SH3 domain, ANK repeat and PH domain-containing protein 1 (Q9ULH1 whole entry, the tested form may be a part): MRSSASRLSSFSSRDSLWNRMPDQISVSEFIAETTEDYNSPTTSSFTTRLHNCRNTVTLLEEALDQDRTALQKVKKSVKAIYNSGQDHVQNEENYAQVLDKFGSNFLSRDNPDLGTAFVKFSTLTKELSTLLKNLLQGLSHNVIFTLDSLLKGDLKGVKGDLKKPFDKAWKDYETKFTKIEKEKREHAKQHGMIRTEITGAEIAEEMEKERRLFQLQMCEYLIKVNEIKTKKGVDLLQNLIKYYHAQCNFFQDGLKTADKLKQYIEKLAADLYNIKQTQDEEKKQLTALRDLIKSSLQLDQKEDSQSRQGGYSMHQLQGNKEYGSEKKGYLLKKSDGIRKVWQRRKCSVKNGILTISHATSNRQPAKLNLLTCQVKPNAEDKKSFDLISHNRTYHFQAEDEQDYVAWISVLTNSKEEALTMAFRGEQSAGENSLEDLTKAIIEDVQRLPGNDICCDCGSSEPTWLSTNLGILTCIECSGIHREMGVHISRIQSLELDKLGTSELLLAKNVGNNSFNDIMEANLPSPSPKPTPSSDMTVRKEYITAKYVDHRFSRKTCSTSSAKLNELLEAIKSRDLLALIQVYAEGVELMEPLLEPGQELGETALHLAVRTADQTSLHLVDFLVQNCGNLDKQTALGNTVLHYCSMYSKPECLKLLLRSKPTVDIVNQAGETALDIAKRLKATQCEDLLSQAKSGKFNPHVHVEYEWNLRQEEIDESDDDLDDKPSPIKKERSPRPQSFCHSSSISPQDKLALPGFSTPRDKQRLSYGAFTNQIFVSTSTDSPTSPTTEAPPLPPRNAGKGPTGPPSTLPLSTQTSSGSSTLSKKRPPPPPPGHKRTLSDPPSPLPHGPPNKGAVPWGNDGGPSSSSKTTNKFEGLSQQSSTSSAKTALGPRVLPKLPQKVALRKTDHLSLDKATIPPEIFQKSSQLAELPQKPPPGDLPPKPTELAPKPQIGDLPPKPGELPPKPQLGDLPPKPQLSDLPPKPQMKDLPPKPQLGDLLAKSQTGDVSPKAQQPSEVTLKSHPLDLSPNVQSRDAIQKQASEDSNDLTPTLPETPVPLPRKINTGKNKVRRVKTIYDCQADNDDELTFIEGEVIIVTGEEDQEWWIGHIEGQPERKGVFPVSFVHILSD
# Genome polyprotein = Genome polyprotein (dengue virus type 2, UniProt P29990); test: flavivirus cap methylation enzyme inhibition – biochemical, confirmation dose response, primary screen (AID 588689); type: functional
# Sequence of Genome polyprotein (P29990 2492-3391 limits assumed): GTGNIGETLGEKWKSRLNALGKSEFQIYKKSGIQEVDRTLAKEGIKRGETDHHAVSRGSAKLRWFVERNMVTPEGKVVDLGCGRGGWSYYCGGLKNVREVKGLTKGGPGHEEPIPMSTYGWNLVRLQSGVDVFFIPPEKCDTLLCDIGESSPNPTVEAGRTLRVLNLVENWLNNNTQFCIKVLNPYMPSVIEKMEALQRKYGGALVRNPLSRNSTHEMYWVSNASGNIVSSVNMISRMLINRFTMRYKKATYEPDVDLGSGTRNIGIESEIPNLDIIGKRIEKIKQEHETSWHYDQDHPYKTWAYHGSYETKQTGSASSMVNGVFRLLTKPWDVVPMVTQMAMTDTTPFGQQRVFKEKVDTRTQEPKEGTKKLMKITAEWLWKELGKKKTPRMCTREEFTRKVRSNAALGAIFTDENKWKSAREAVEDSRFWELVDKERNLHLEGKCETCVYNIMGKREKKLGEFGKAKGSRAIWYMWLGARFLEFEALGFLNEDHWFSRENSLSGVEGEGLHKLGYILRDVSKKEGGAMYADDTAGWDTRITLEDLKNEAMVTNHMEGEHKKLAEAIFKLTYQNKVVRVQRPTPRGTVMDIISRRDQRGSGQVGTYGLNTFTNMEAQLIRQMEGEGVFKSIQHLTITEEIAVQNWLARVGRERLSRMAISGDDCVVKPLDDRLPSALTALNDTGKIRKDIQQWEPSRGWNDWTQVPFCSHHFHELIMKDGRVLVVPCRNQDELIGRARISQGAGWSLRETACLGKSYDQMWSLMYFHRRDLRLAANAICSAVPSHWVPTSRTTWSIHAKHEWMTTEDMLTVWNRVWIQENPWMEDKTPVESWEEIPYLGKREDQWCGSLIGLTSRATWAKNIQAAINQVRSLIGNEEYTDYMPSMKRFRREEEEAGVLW
# T1 sequence (Q96RJ0 whole entry): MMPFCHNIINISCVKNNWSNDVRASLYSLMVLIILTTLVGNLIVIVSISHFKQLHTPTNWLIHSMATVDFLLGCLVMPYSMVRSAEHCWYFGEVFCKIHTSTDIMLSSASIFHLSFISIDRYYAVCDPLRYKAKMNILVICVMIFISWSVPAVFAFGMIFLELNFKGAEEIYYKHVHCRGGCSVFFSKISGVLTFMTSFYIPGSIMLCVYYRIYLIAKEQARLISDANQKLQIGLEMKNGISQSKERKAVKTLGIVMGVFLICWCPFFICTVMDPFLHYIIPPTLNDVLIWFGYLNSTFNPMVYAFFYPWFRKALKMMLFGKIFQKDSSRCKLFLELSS
smiles,measurement,setting,value
O=C(NCCc1cccs1)C1CC(c2cccc(F)c2)=NO1 (configuration not stated),IC50,[1],2.6 µM (active)
same,EC50,[2],13.7 µM (inactive)
same,EC50,cells [3],> 29.9 µM (inactive)
same,IC50,cells [4],> 29.9 µM (inactive)
CCOc1cc(C(c2c(C)[nH][nH]c2=O)c2c(C)[nH][nH]c2=O)ccc1O,IC50,[5],21.4 µM (active)
same,EC50,[6],107 µM (active)
same,AC50,[7],0.302 µM (active)
same,EC50,[8],57.9 µM (active)
same,IC50,Large T antigen,> 100 µM (active)
same,IC50,[9],16.2 µM (active)
same,EC50,Protein RecA,0.24 µM (active)
COc1ccccc1Cc1c(-c2ccc(C)cc2)nc2cc(C)c(Br)c(C)n12,EC50,[10],> 20 µM (inactive)
Cc1ccc(C)c(OCC(=O)Nc2nonc2NC(=O)COc2cc(C)ccc2C)c1,AC50,[11],6.79 µM (active)
same,IC50,SUMO-activating enzyme,45.4 µM (active)
same,AC50,[12],25.4 µM (active)
same,AC50,[13],1.4 µM (active)
same,AC50,[14],4.31 µM (active)
same,AC50,[15],2.68 µM (active)
CC(=O)Nc1ccc(Cl)c(C(=O)Nc2ccc(N3CCN(C(=O)OC(C)(C)C)CC3)cc2)c1,AC50,[16],> 70 µM (inactive)
same,AC50,[17],0.00402 µM (active)
same,AC50,[18],0.00659 µM (active)
COC(=O)C1=CN(Cc2ccc(F)cc2)C=C(C(=O)OC)C1c1cc(OC)c(OC)c(OC)c1,IC50,[19],1.65 µM (active)
CCN(c1ccccc1)S(=O)(=O)c1ccc(OC)c(NC(=O)C2CCC2)c1,AC50,A549,35.7 µM (active)
O=C(COc1ccccc1)Nc1cccc(-c2ccc(N3CCOCC3)nn2)c1,IC50,[20],> 67.5 µM (inactive)
same,IC50,cells [21],> 67.5 µM (inactive)
Cc1cc(C)c2nc(N3C(=O)C(O)=C(C(=O)c4ccco4)C3c3cccc(O)c3)sc2c1 (configuration not stated),IC50,[22],81.8 µM (inactive)
same,IC50,Genome polyprotein,32.4 µM (active)

# Source: ChEMBL document CHEMBL1201862, “PubChem BioAssay data set” (2004)
